Measured values reported in patent publication US4424218A, “Novel 3 α-amino steroids” (Roussel Uclaf, priority 1979, dated 1984).
Counter-ions that a name gives are not always drawn. Like-named read-outs stand apart in the source and are kept apart here.

Tests used:
[1] = test system: rosettes to sheep red corpuscles; assay: Test of Rosettes to sheep red corpuscles; format: in vivo, rats; conditions: Rattus norvegicus, po, 24 h, read-out: immunostimulating dose which multiplied by 2 the percentage of rosettes observed in the control animals
From the text: D. Test of Rosettes to sheep red corpuscles
The administration to animals of a product capable of stimulating the immunitary systems leads to an increase of their capacity of reaction to the injection of an immunogenic product. 3 month old male rats were sensibilized by intraperitoneal administration of sheep erythrocytoes on day 0 and 7 days later, the spleen was removed and splenocytes were placed in contact with sheep erythrocytes. The percentage of leucocytes around the erythrocytes in the form of rosettes was determined. The test compounds were orally administered daily from day-1 to day 1 and immunostimulating dose is the dose of product which multiplied by 2 the percentage of rosettes observed in the control animals and the results are reported in Table II.

anaphylactic shock = assay: Adjuvant for anaphylactic shock (beef seric albumin); format: in vivo, mice; conditions: intraplantary, admixed with antigen; antigen intravenously 8 days later
From the text: C. Adjuvant for anaphylactic shock
The administration to animals of a compound capable of stimulating the activity of immunitary systems leads to an increase in response to administration of antigen to which the animal is sensitive. Male mice weighing between 30 to 35 g were sensitized by intraplantary administration of beef seric albumin. 8 days later, the mice received intraveinously an antigen and under the minimum sensibilization conditions, the control animals were not in mortal shock at the time of the last administration.
The active dose which provoked a mortality equal to or greater than 50% of the animals was determined and the results are reported in Table I.

mice = assay: Acute toxicity; format: in vivo; conditions: orally
IgE production = assay: Potentialization of IgE production (passive cutaneous anaphylaxia test); format: in vivo, mice; conditions: for minimal effective dose: Mus musculus, sc, read-out: active dose, potentialization of IgE production
Description: A. Potentialization of IgE production
Female mice weighing between 28 to 30 g were immunized by subcutaneous administration of an ovalbumin-alumina mixture on days 0 and 14 and serum was taken on the 21st day for dosage of IgE antibodies formed. The respective quantities of antigen (ovalbumin) and adjuvant (alumina) injected was selected so as to keep production of antibodies at a minimum. The test compounds were administered subcutaneously 3 hours before the first immunization.
The research of the larger dilution of serum which gives a spot of a 11 to 13 mm diameter for each animal is made. An adequate dilution of serum was injected intradermally with a volume of 0.1 ml in male rats weighing about 250 g in the region of the back. 48 hours later, the animals received veinously 0.5 ml of a solution of 0.5% of ovalbumin and 1% of Evans blue in an isotonic solution of sodium chloride. 30 minutes after this injection, the animals were killed by exsanguination and the diameter of the blue spot on turned over skin is measured.

secondary arthritis = assay: Adjuvant for chronic arthritis (Freund type adjuvant); format: in vivo, rat; conditions: for ED50: Rattus norvegicus, read-out: active dose which diminished the secondary inflammation by at least 50%
Description: B. Adjuvant for chronic arthritis
The injection of a Freund type adjuvant (Mycobacterium butyricum at 6 mg/ml in Bayol 55) into the posterium paw of a rat provokes a primary inflammatory lesion and then after a latency period of 13 to 15 days, initiation of secondary inflammation affecting the other non-injected rear paw as well as the front paws, the ears and the tail.
Male rats aged 42 to 50 days received an intraplantary injection of 0.10 ml of Freund adjuvant and treatment started the day of the adjuvant injection and continued until the animals were killed on the 17th day. […] In this test, the effect on secondary inflammations was essentially observed, it was determined by the arthritis of the non-injected rear paw, arthritis of the front paws and the inflammation of the ears and tail.

[2] = orally, daily from day -1 to day 1

SMILES	ED (2-fold rosettes) [1, 2] [mg/kg]	active dose which provoked a mortality equal to or greater than 50% of the animals (anaphylactic shock) [mg per animal]	DL0 (lethal dose LD0, maximum dose which did not cause any mortality after 8 days) (mice) [mg/kg]	further results
C[C@H](N)C(=O)N[C@@H]1CC[C@@]2(C)[C@@H](CC[C@@H]3[C@@H]2CC[C@]2(C)[C@@H]([C@H](C)O)CC[C@@H]32)C1 [Example 2, (2S) 2-amino-N-[(20S)-5α-pregnan-20-ol-3α-yl]-propanamide]	1	0.5	200	
C[C@H](O)[C@H]1CC[C@H]2[C@@H]3CC[C@H]4C[C@H](NC(=O)[C@@H](N)CCC(=O)O)CC[C@]4(C)[C@H]3CC[C@]12C [Example 3]		≤ 1	≥ 400	
C[C@H](O)[C@H]1CC[C@H]2[C@@H]3CC[C@H]4C[C@H](NC(=O)[C@@H](N)CO)CC[C@]4(C)[C@H]3CC[C@]12C [Example 4]			≥ 400	
C[C@H](O)[C@H]1CC[C@H]2[C@@H]3CC[C@H]4C[C@H](NC(=O)[C@@H](N)Cc5ccccc5)CC[C@]4(C)[C@H]3CC[C@]12C [Example 5]		5	≥ 400	
C[C@H](O)[C@H]1CC[C@H]2[C@@H]3CC[C@H]4C[C@H](NC(=O)[C@@H](N)Cc5c[nH]c6ccccc56)CC[C@]4(C)[C@H]3CC[C@]12C [Example 6, (2S) 2-amino-N-[(20S) 5α-pregnane-20-ol-3α-yl]-1H-indol-3-propanamide]	2	5	≥ 1000	
C[C@H](O)[C@H]1CC[C@H]2[C@@H]3CC[C@H]4C[C@H](NC(=O)[C@@H]5CCCN5)CC[C@]4(C)[C@H]3CC[C@]12C [Example 7]	> 5	2	≥ 800	
C[C@H](O)[C@H]1CC[C@H]2[C@@H]3CC[C@H]4C[C@H](NC(=O)CNC(=O)CN)CC[C@]4(C)[C@H]3CC[C@]12C [Example 8]		1	≥ 400	
C[C@H](O)[C@H]1CC[C@H]2[C@@H]3CC[C@H]4C[C@H](NC(=O)c5cccnc5)CC[C@]4(C)[C@H]3CC[C@]12C [Example 9, N-[(20S)5α-pregnan-20-ol-3α-yl]-3-pyridinecarboxamide]	5	5		
C[C@H](O)[C@@]1(O)CC[C@H]2[C@@H]3CC[C@H]4C[C@H](NC(=O)CN)CC[C@]4(C)[C@H]3CC[C@@]21C [Example 10, 2-amino-N-[(20S) 5α-pregnane-17α,20-diol-3α-yl]-acetamide hydrochloride]		1	≥ 600	
C[C@H](O)[C@H]1CC[C@H]2[C@@H]3CC[C@H]4C[C@H](NC(=O)CN)CC[C@@H]4[C@H]3CC[C@]12C [Example 11, 2-amino-N-[(20S) 19-nor-5α-pregnane-20-ol-3α-yl]-acetamide hydrochloride]	5	0.5	≥ 400	
CC(=O)[C@@]1(O)CC[C@H]2[C@@H]3CC[C@H]4C[C@H](NC(=O)CN)CC[C@]4(C)[C@H]3CC[C@@]21C [Example 12, 2-amino-N-[(5α-pregnane-17α-ol-20-one-3α-yl]-acetamide hydrochloride]	5			
CCOC(=O)N[C@@H]1CC[C@@]2(C)[C@@H](CC[C@@H]3[C@@H]2CC[C@]2(C)[C@@H]([C@H](C)O)CC[C@@H]32)C1 [Example 14, Ethyl N-[(20S)5α-pregnane-20-ol-3α-yl]-carbamate]		5	≥ 400	
C[C@H](O)[C@H]1CC[C@H]2[C@@H]3CC[C@H]4C[C@H](N(C)C(=O)CN)CC[C@]4(C)[C@H]3CC[C@]12C.Cl [Example 15, 2-amino-N-[(20S) 5α-pregnane-20-ol-3α-yl]-N-methyl-acetamide hydrochloride]		0.5	≥ 200	ED (2-fold rosettes) [1]: 10 mg/kg
c1ccc([C@H]2CN3CCSC3=N2)cc1 [Levamisole, reference compound]				minimal effective dose (IgE production; subcutaneous, 3 hours before first immunization, ovalbumin-alumina): 20 mg/kg; ED50 (secondary arthritis; po, orally, treatment from day of adjuvant injection to 17th day): 50 mg/kg
C[C@H](O)[C@H]1CC[C@H]2[C@@H]3CC[C@H]4C[C@H](NC(=O)CN)CC[C@]4(C)[C@H]3CC[C@]12C.Cl [Product A, (20S) 3α-[(aminoacetyl)-amino]-5α-pregnane-20-ol hydrochloride]				minimal effective dose (IgE production): 0.5 mg/kg; immunostimulating activity in IgE test (in words) (IgE production; subcutaneous, compared with Levamisole): greater immunostimulating activity than Levamisole; ED50 (secondary arthritis; sc): 1 mg/kg; activity against secondary phenomena of arthritis of adjuvant (in words) (secondary arthritis; subcutaneously, compared with Levamisole): very active against secondary phenomena of arthritis of adjuvant
